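Interpolation was linear, between the two tested concentrations surrounding the appropriate level; five concentrations were tested over 48 hours in 96-well plates. Abbreviation: GI50, concentration required for 50% inhibition of growth.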 The source made the active and inactive calls. No stated cut-off is given here; in the data, active = GI50 up to about 1.1 µM and inactive = higher.

Holding throughout (assay): growth of human tumour cells (NCI), 48 h
Assay [1] relates to 786-0.
In assay [2] the test system is EKVX.
Assay [3] deals with HCC 2998.
Assay [4] has as its system HCT-15.
In assay [5] the test system is Malme-3M.
Assay [6] deals with NCI-H23.
Assay [7] has as its system OVCAR-3.
Assay [8] has as its system RPMI-8226.
The test system of assay [9] is RXF 393.
Assay [10] deals with SF-295.
Assay [11] deals with SF-539.
The subject of assay [12] is SK-MEL-2.
Assay [13] deals with SNB-75.
In assay [14] the test system is SR.
The test system of assay [15] is SW-620.
The test system of assay [16] is UACC-62.
Assay [17] deals with UO-31.

As to `O=C(NNC(=O)/C(=C/c1cccc([N+](=O)[O-])c1)NC(=O)c1ccccc1)Nc1ccc(Cl)cc1`, the GI50 in assay [1] is 14 µM (inactive); in assay [2], 18.7 µM (inactive); in assay [3], 13.1 µM (inactive); in [4] it was 12.2 µM; in assay [5], 14.2 µM (inactive); in assay [6], 15.1 µM (inactive). For the same molecule, the GI50 was 11.6 µM (inactive) in [7]; 9.55 µM (inactive) in assay [8]; 11 µM (inactive) in [9]; 18.7 µM (inactive) in assay [10]; 16.7 µM (inactive) in assay [11]; 12.2 µM (inactive) in assay [12]. Besides, the GI50 in assay [13] is 13.6 µM (inactive); in assay [14], 7.74 µM (inactive); in [15], 15.1 µM (inactive); in assay [16] it was 14.5 µM (inactive); in assay [17] it was 13.5 µM (inactive).

With `COC(=O)c1c/c(=N\NC(=O)CC(=O)Nc2ccccc2Cl)c2ccccc2o1`, the GI50 in assay [1] is > 100 µM (inactive); in assay [2], > 100 µM (inactive); in assay [3], 65.3 µM (inactive); in [4], over 100 µM; in assay [6], > 100 µM (inactive); in [7], > 100 µM (inactive). Also, the GI50 in assay [8], in assay [10], in assay [11], in [12], in assay [13] and in assay [14] was > 100 µM (inactive) each time. The GI50 was > 100 µM (inactive) in assay [15], > 100 µM (inactive) in assay [16] and 91.4 µM (inactive) in assay [17].

On to `N#Cc1ccccc1/C=N/O`, for which the GI50 in assay [1] is > 76.7 µM (inactive); in assay [2], > 100 µM (inactive); in assay [3] it was > 100 µM (inactive); in assay [4], over 41 µM; in assay [5], > 100 µM (inactive); in assay [6], > 100 µM (inactive). In addition, the GI50 in assay [7] is > 100 µM (inactive); in assay [8] it was > 42.2 µM (inactive); in assay [9], > 100 µM (inactive); in assay [10], > 100 µM (inactive); in [11] it was > 100 µM (inactive); in assay [13] it was > 69.5 µM (inactive). For the same molecule, the GI50 in assay [14] is > 100 µM (inactive); in [15] it was > 36.9 µM (inactive); in assay [16] it was > 100 µM (inactive); in assay [17] it was > 100 µM (inactive).

With `Brc1ccccc1C1SCc2nc3ccccc3n21` (configuration not stated), the GI50 is 14 µM (inactive) in assay [1]; 17.3 µM (inactive) in assay [2]; 9.84 µM in assay [4]; 18.8 µM (inactive) in assay [5]; 11.7 µM (inactive) in assay [6]; 13.5 µM (inactive) in assay [7]. In addition, the GI50 in assay [8] is 13.7 µM (inactive); in assay [9] it was 9.33 µM (inactive); in assay [10] it was 23.8 µM (inactive); in assay [11], 17.4 µM (inactive); in [12] it was 15.5 µM (inactive); in [13] it was 21.7 µM (inactive). Also, the GI50 in [14] is 12.6 µM (inactive); in assay [15], 32.3 µM (inactive); in assay [16], > 10 µM (inactive); in assay [17], 10.4 µM (inactive).

As to `O=c1[nH]c(-c2ccccc2)nc2ccc(Cl)cc12`, the GI50 was 60.8 µM (inactive) in assay [1]; 54.7 µM (inactive) in assay [2]; > 100 µM (inactive) in assay [3]; 35.7 µM in assay [4]; 48.6 µM (inactive) in assay [5]; 77.4 µM (inactive) in assay [6]. Moreover, the GI50 in assay [7] was 31 µM (inactive); in assay [8], 33.2 µM (inactive); in [9], 20 µM (inactive); in assay [10], 73.6 µM (inactive); in assay [11], > 100 µM (inactive); in assay [12], 47 µM (inactive). Further, the GI50 in assay [14] was 85.5 µM (inactive); in assay [15], 29.4 µM (inactive); in assay [17], 48.1 µM (inactive).

`COc1cc(-c2nccc3cc(OC)c(OC)cc23)ccc1O`: the GI50 was 78 µM (inactive) in assay [1]; 35.6 µM (inactive) in assay [2]; > 100 µM (inactive) in assay [3]; 27.9 µM in [4]; > 100 µM (inactive) in [5]; 32.4 µM (inactive) in [6]. Further, the GI50 in assay [7] was 49.3 µM (inactive); in assay [8], 21.4 µM (inactive); in assay [10], 25.6 µM (inactive); in [11], 35.4 µM (inactive); in assay [12] it was > 100 µM (inactive); in [13], 75.7 µM (inactive). Besides, the GI50 in assay [14] is 30.3 µM (inactive); in assay [15] it was 55.2 µM (inactive); in assay [16], 30 µM (inactive); in [17] it was > 100 µM (inactive).

Consider `Fc1ccccc1C1CC(c2ccc3ccccc3c2)=Nc2ccccc2S1` (configuration not stated), for which the GI50 is > 100 µM (inactive) in assay [1]; > 100 µM (inactive) in assay [2]; 4.27 µM (inactive) in assay [3]; > 100 µM (inactive) in [5]; > 100 µM (inactive) in [6]; > 100 µM (inactive) in assay [7]. The GI50 in assay [9], in assay [10], in assay [11], in assay [12], in assay [14] and in [15] was > 100 µM (inactive) in each case. Besides, the GI50 in assay [16] and in assay [17] was > 100 µM (inactive) throughout.

Regarding `CCCCCCCCC(=O)N(C)C1C2CN3CCC(O2)C13` (configuration not stated), the GI50 is > 100 µM (inactive) in [1]; > 100 µM (inactive) in [2]; > 100 µM (inactive) in assay [3]; over 100 µM in assay [4]; > 100 µM (inactive) in [5]; > 100 µM (inactive) in [6]. The GI50 in [7], in assay [8], in [9], in assay [10], in assay [11] and in assay [12] was > 100 µM (inactive) throughout. Also, the GI50 in [13] was 75.7 µM (inactive); in [15] it was > 100 µM (inactive); in [16], > 100 µM (inactive); in [17], > 100 µM (inactive).

Consider `OCC(O)C(O)C(O)C(O)c1nnn[nH]1` (configuration not stated), for which the GI50 is > 100 µM (inactive) in assay [1]; > 100 µM (inactive) in [2]; over 100 µM in assay [4]; > 100 µM (inactive) in assay [5]; > 100 µM (inactive) in assay [6]; > 100 µM (inactive) in assay [7]. The GI50 in assay [8], in [10], in assay [11], in [12], in assay [14] and in [15] was > 100 µM (inactive) in each case. The GI50 in assay [16] and in assay [17] was > 100 µM (inactive) in each case.

For the molecule `COCCCNC(=O)C1C(=O)N(CCCOC)C(=O)/C1=N\N` (configuration not stated), the GI50 in [1] was > 100 µM (inactive); in assay [2], > 100 µM (inactive); in assay [3] it was > 100 µM (inactive); in assay [4] it was over 100 µM; in assay [5], > 100 µM (inactive); in [6], > 100 µM (inactive). For the same molecule, the GI50 in assay [7], in [8], in assay [9], in assay [10], in assay [11] and in assay [12] was > 100 µM (inactive) each time. In addition, the GI50 in assay [13] is 38.3 µM (inactive); in [15] it was > 100 µM (inactive); in assay [16] it was > 100 µM (inactive); in assay [17] it was > 100 µM (inactive).

As to `Cc1cccc(NC(=O)CC2C(=O)Nc3ccccc3S2(=O)=O)c1C` (configuration not stated), the GI50 is 29 µM (inactive) in assay [1]; > 100 µM (inactive) in assay [2]; 28.1 µM (inactive) in assay [3]; 40.6 µM in [4]; 22.9 µM (inactive) in assay [5]; 16.7 µM (inactive) in [6]. For the same molecule, the GI50 in [7] was 21.7 µM (inactive); in assay [9] it was 17.9 µM (inactive); in assay [10] it was 58.1 µM (inactive); in assay [11] it was 19.8 µM (inactive); in [12], 23.4 µM (inactive); in assay [13], 16.9 µM (inactive). For the same molecule, the GI50 is 11.1 µM (inactive) in assay [14], 28.2 µM (inactive) in [15], 18.6 µM (inactive) in assay [16] and 20.9 µM (inactive) in assay [17].

In the case of `COc1cc(Br)c(/C=N\c2cccc3ccc(OS(=O)(=O)c4ccc([N+](=O)[O-])cc4)cc23)cc1OC`, the GI50 in assay [1] was 75.7 µM (inactive); in assay [2], > 100 µM (inactive); in [3] it was 36.4 µM (inactive); in assay [4] it was 10.5 µM; in assay [5], > 100 µM (inactive); in [6] it was 44.1 µM (inactive). Also, the GI50 in assay [7] was > 100 µM (inactive); in [8], > 100 µM (inactive); in assay [9], > 100 µM (inactive); in assay [10], 5.06 µM (inactive); in assay [11] it was > 100 µM (inactive); in assay [12], > 100 µM (inactive). The GI50 in [14] is > 100 µM (inactive); in assay [15], > 100 µM (inactive); in assay [16] it was 29.4 µM (inactive); in [17], 7.33 µM (inactive).

Regarding `O=C(OCc1ccccc1C1CSCSC1)c1cc(C(=O)OCc2ccccc2C2CSCSC2)c(C(=O)OCc2ccccc2C2CSCSC2)cc1C(=O)OCc1ccccc1C1CSCSC1`, the GI50 in assay [1] was 65 µM (inactive); in [4] it was over 100 µM; in assay [5] it was > 100 µM (inactive); in assay [6] it was > 100 µM (inactive); in [7] it was > 100 µM (inactive); in assay [8] it was > 100 µM (inactive). Also, the GI50 in assay [9] was > 100 µM (inactive); in assay [10] it was > 100 µM (inactive); in assay [11] it was > 100 µM (inactive); in assay [12], > 100 µM (inactive); in [13], 29.4 µM (inactive); in [14], > 100 µM (inactive). The GI50 in [15], in assay [16] and in assay [17] was > 100 µM (inactive) in each case.
